Data taken from PubChem BioAssay AID1963873 (Molecular Pharmacology Branch, DTP, NCI, 2024).

Test system: 276233-004-R-J1-PDC KRAS spheroids with HUVEC/MSC, viability
Assay: Anticancer human tumor 276233-004-R-J1-PDC patient-derived colon adenocarcinoma cell line growth inhibition [KRAS2]
Conditions: for IC50: curve of first compound; for viability, T/C: stronger effect = lower value
Method in brief: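 Combination screen of spheroid viability in tumor-cell co-cultures with endothelial (HUVEC) and mesenchymal stem cell stroma. Each agent was tested in half-log dilutions, topping at clinical Cmax or at 10 microM without a known Cmax.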

[1] = second compound 0.1 µM, first compound 0.0316 µM
[2] = second compound 0.1 µM, first compound 0.1 µM
[3] = second compound 0.1 µM, first compound 0.316 µM
[4] = second compound 0.1 µM, first compound 1 µM
[5] = second compound 0.1 µM, first compound 3.16 µM
[6] = second compound 0.1 µM, first compound 10 µM
[7] = second compound 0.316 µM, first compound 0.0316 µM
[8] = second compound 0.316 µM, first compound 0.1 µM
[9] = second compound 0.316 µM, first compound 0.316 µM
[10] = second compound 0.316 µM, first compound 1 µM
[11] = second compound 0.316 µM, first compound 3.16 µM
[12] = second compound 0.316 µM, first compound 10 µM
[13] = second compound 1 µM, first compound 0.0316 µM
[14] = second compound 1 µM, first compound 0.1 µM
[15] = second compound 1 µM, first compound 0.316 µM
[16] = second compound 1 µM, first compound 1 µM
[17] = second compound 1 µM, first compound 3.16 µM
[18] = second compound 1 µM, first compound 10 µM
[19] = second compound 3.16 µM, first compound 0.0316 µM
[20] = second compound 3.16 µM, first compound 0.1 µM
[21] = second compound 3.16 µM, first compound 0.316 µM
[22] = second compound 3.16 µM, first compound 1 µM
[23] = second compound 3.16 µM, first compound 3.16 µM
[24] = second compound 3.16 µM, first compound 10 µM
[25] = second compound 10 µM, first compound 0.0316 µM
[26] = second compound 10 µM, first compound 0.1 µM
[27] = second compound 10 µM, first compound 0.316 µM
[28] = second compound 10 µM, first compound 1 µM
[29] = second compound 10 µM, first compound 3.16 µM
[30] = second compound 10 µM, first compound 10 µM
[31] = second compound 0.1 µM, first compound 0.01 µM
[32] = second compound 0.316 µM, first compound 0.01 µM
[33] = second compound 1 µM, first compound 0.01 µM
[34] = second compound 3.16 µM, first compound 0.01 µM
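Also: cells exposed to agents for seven days before viability read.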
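For viability, T/C in this document: 100% = DMSO vehicle control wells and lower values mean fewer viable cells.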

## COC(=O)c1ccc2c(C(=Nc3ccc(N(C)C(=O)CN4CCN(C)CC4)cc3)c3ccccc3)c(O)[nH]c2c1 + CC1OCC2(CCN(c3cnc(Sc4ccnc(N)c4Cl)c(N)n3)CC2)C1N
Second compound 0.1 µM
  IC50: > 10000 nM
Second compound 0.316 µM
  IC50: > 10000 nM
Second compound 1 µM
  IC50: 1180 nM
Second compound 3.16 µM
  IC50: 33.2 nM
Second compound 10 µM
  IC50: < 31.6 nM
[1]
  viability, T/C: 87.3%
[2]
  viability, T/C: 73.7%
[3]
  viability, T/C: 68.5%
[4]
  viability, T/C: 64.6%
[5]
  viability, T/C: 65.6%
[6]
  viability, T/C: 56.2%
[7]
  viability, T/C: 80%
[8]
  viability, T/C: 63.8%
[9]
  viability, T/C: 59.2%
[10]
  viability, T/C: 64.7%
[11]
  viability, T/C: 46.1%
[12]
  viability, T/C: 70.7%
[13]
  viability, T/C: 67.8%
[14]
  viability, T/C: 61.1%
[15]
  viability, T/C: 54.3%
[16]
  viability, T/C: 55.1%
[17]
  viability, T/C: 42.3%
[18]
  viability, T/C: 42.1%
[19]
  viability, T/C: 49.8%
[20]
  viability, T/C: 47.6%
[21]
  viability, T/C: 40.6%
[22]
  viability, T/C: 41.1%
[23]
  viability, T/C: 40%
[24]
  viability, T/C: 37.3%
[25]
  viability, T/C: 44.9%
[26]
  viability, T/C: 49.5%
[27]
  viability, T/C: 42.6%
[28]
  viability, T/C: 48%
[29]
  viability, T/C: 36.3%
[30]
  viability, T/C: 37.9%

## Cn1nccc1Nc1nccc(-c2cc3c(s2)C(C)(C)N(CCN2CCOCC2)C3=O)n1 + CC1OCC2(CCN(c3cnc(Sc4ccnc(N)c4Cl)c(N)n3)CC2)C1N
Second compound 0.1 µM
  IC50: 2310 nM
Second compound 0.316 µM
  IC50: 830 nM
Second compound 1 µM
  IC50: 476 nM
Second compound 3.16 µM
  IC50: 320 nM
Second compound 10 µM
  IC50: < 31.6 nM
[1]
  viability, T/C: 86.9%
[2]
  viability, T/C: 82.3%
[3]
  viability, T/C: 76.8%
[4]
  viability, T/C: 70.3%
[5]
  viability, T/C: 37.7%
[6]
  viability, T/C: 47%
[7]
  viability, T/C: 79.6%
[8]
  viability, T/C: 76.5%
[9]
  viability, T/C: 65.5%
[10]
  viability, T/C: 47.2%
[11]
  viability, T/C: 33.1%
[12]
  viability, T/C: 28.8%
[13]
  viability, T/C: 78.5%
[14]
  viability, T/C: 73.2%
[15]
  viability, T/C: 56.2%
[16]
  viability, T/C: 38%
[17]
  viability, T/C: 26%
[18]
  viability, T/C: 22.2%
[19]
  viability, T/C: 60.7%
[20]
  viability, T/C: 62.3%
[21]
  viability, T/C: 49.4%
[22]
  viability, T/C: 30.3%
[23]
  viability, T/C: 19.7%
[24]
  viability, T/C: 16.4%
[25]
  viability, T/C: 48.4%
[26]
  viability, T/C: 38.2%
[27]
  viability, T/C: 32.1%
[28]
  viability, T/C: 23.5%
[29]
  viability, T/C: 19%
[30]
  viability, T/C: 16.9%

## Cn1ncnc1[C@H]1c2n[nH]c(=O)c3cc(F)cc(c23)N[C@@H]1c1ccc(F)cc1 + CNCc1ccccc1-c1csc(C(C)Nc2nc(C)nc3cc(OC)c(OC)cc23)c1
Second compound 0.1 µM
  IC50: > 100 nM
Second compound 0.316 µM
  IC50: > 100 nM
Second compound 1 µM
  IC50: > 100 nM
Second compound 3.16 µM
  IC50: < 0.316 nM
Second compound 10 µM
  IC50: < 0.316 nM
Second compound 0.1 µM, first compound 0.000316 µM
  viability, T/C: 113%
Second compound 0.1 µM, first compound 0.001 µM
  viability, T/C: 115%
Second compound 0.1 µM, first compound 0.00316 µM
  viability, T/C: 98.2%
[31]
  viability, T/C: 107%
[1]
  viability, T/C: 87.6%
[2]
  viability, T/C: 120%
Second compound 0.316 µM, first compound 0.000316 µM
  viability, T/C: 96.1%
Second compound 0.316 µM, first compound 0.001 µM
  viability, T/C: 119%
Second compound 0.316 µM, first compound 0.00316 µM
  viability, T/C: 116%
[32]
  viability, T/C: 124%
[7]
  viability, T/C: 83.2%
[8]
  viability, T/C: 98.5%
Second compound 1 µM, first compound 0.000316 µM
  viability, T/C: 56.7%
Second compound 1 µM, first compound 0.001 µM
  viability, T/C: 69.5%
Second compound 1 µM, first compound 0.00316 µM
  viability, T/C: 75.1%
[33]
  viability, T/C: 68.2%
[13]
  viability, T/C: 50.2%
[14]
  viability, T/C: 78%
Second compound 3.16 µM, first compound 0.000316 µM
  viability, T/C: 9.27%
Second compound 3.16 µM, first compound 0.001 µM
  viability, T/C: 0.64%
Second compound 3.16 µM, first compound 0.00316 µM
  viability, T/C: 0.7%
[34]
  viability, T/C: 0.62%
[19]
  viability, T/C: 0.53%
[20]
  viability, T/C: 0.74%
Second compound 10 µM, first compound 0.000316 µM
  viability, T/C: 0.22%
Second compound 10 µM, first compound 0.001 µM
  viability, T/C: 0.22%
Second compound 10 µM, first compound 0.00316 µM
  viability, T/C: 0.22%
Second compound 10 µM, first compound 0.01 µM
  viability, T/C: 0.2%
[25]
  viability, T/C: 0.18%
[26]
  viability, T/C: 2.9%

## CC(=O)OC12COC1CC(O)C1(C)C(=O)C(O)C3=C(C)C(OC(=O)C(O)C(NC(=O)OC(C)(C)C)c4ccccc4)CC(O)(C(OC(=O)c4ccccc4)C21)C3(C)C (stereo not given) + C=CC(=O)N1CCN(c2nc(OCC3CCCN3C)nc3c2CCN(c2cccc4cccc(C)c24)C3)CC1CC#N
Second compound 0.0316 µM
  IC50: > 3160 nM
Second compound 0.1 µM
  IC50: > 3160 nM
Second compound 0.316 µM
  IC50: > 3160 nM
Second compound 1 µM
  IC50: > 3160 nM
Second compound 3.16 µM
  IC50: > 3160 nM
Second compound 0.0316 µM, first compound 0.01 µM
  viability, T/C: 82.1%
Second compound 0.0316 µM, first compound 0.0316 µM
  viability, T/C: 90.6%
Second compound 0.0316 µM, first compound 0.1 µM
  viability, T/C: 103%
Second compound 0.0316 µM, first compound 0.316 µM
  viability, T/C: 96%
Second compound 0.0316 µM, first compound 1 µM
  viability, T/C: 112%
Second compound 0.0316 µM, first compound 3.16 µM
  viability, T/C: 94.8%
[31]
  viability, T/C: 96.7%
[1]
  viability, T/C: 96.3%
[2]
  viability, T/C: 76.4%
[3]
  viability, T/C: 86.8%
[4]
  viability, T/C: 91.5%
[5]
  viability, T/C: 95.5%
[32]
  viability, T/C: 97.8%
[7]
  viability, T/C: 83.4%
[8]
  viability, T/C: 73.6%
[9]
  viability, T/C: 72.2%
[10]
  viability, T/C: 99%
[11]
  viability, T/C: 107%
[33]
  viability, T/C: 84.4%
[13]
  viability, T/C: 79.3%
[14]
  viability, T/C: 75.8%
[15]
  viability, T/C: 71.3%
[16]
  viability, T/C: 93.3%
[17]
  viability, T/C: 98.2%
[34]
  viability, T/C: 103%
[19]
  viability, T/C: 87.8%
[20]
  viability, T/C: 88.4%
[21]
  viability, T/C: 87.2%
[22]
  viability, T/C: 95.7%
[23]
  viability, T/C: 112%
